In patent US20100247538A1, “IL-18 and Protein Kinase R Inhibition for the Treatment of COPD” (Yale University, priority 2007, published 2010):
“Also recorded” adds a separate entry of the source.

Columns and labels:
[1] = tested on: murine lung; assay: BAL inflammation (BAL cell recovery) after PAMP administration in mice breathing room air or exposed to cigarette smoke; format: in vivo; details: for BAL inflammation: interaction with cigarette smoke (CS-exposed vs non-CS animals): CS exposure 2 weeks before and during dosing; for number of cells recovered per ml of BAL fluid: control (non-CS) animals, dose series
Description: During the first week they received a half cigarette, twice a day, to allow for acclimation. During the remainder of the exposure they received three cigarettes per day (one cigarette per session/three sessions per day).
(§1) CS exposure was continued during this interval.
Mice were sacrificed using intraperitoneal ketamine/xylazine injection and the trachea was cannulated and perfused with two 0.9 ml aliquots of cold saline. The cellular contents and BAL fluid were separated by centrifugation and the BAL fluid was stored in aliquots at −80° C.

[2] = tested on: murine lung; assay: Alveolar remodeling / emphysema (mean chord length, lung morphometry); details: for tissue / alveolar remodeling: control or CS-exposed animals
[3] = tested on: murine lung; assay: TUNEL evaluation of lung cell apoptosis; format: in vivo, mice
Description: End labeling of exposed 3′-OH ends of DNA fragments in paraffin-embedded tissue was undertaken with the TUNEL in situ cell death detection kit AP (Roche Diagnostics) using the instructions provided by the manufacturer. Staining specificity was assessed by comparing the signal that was seen when terminal transferase was included and excluded from the reaction. After staining, a minimum of 20 fields of alveoli were randomly chosen, and 500 nuclei were counted per lung. The labeled cells were expressed as a percentage of total nuclei.
as §1
End labeling of exposed 3′-OH ends of DNA fragments in paraffin embedded tissue was undertaken with the TUNEL in situ cell death detection kit AP (Roche Diagnostics, Indianapolis, Ind.) using the instructions provided by the manufacturer. Staining specificity was assessed by comparing the signal that was seen when terminal transferase was included and excluded from the reaction. After staining, a minimum of 10 fields of alveoli was randomly chosen and 300 nuclei of structural cells were counted per lung. The labeled cells were expressed as a percentage of total nuclei.

[4] = tested on: IL-18; assay: BAL IL-18 ELISA; format: in vivo, mice
Description: Mice were euthanized, the trachea was isolated by blunt dissection, and tubing was secured in the airway. Three volumes of 0.6 ml of PBS were then instilled and gently aspirated and pooled. Each BAL fluid sample was centrifuged, and the supernatants were stored in −70° C. until used. Lung lysates were also prepared. The levels of IL-18 were determined using a commercial ELISA kit (R&D Systems) as per the manufacturer's instructions.
as §1
(§2) The levels of BAL IL-18 (MBL, Japan), IL-12/IL-23p40 and IFN-γ (R&D Systems) were determined using commercial ELISA kits as per the manufacturer's instructions.

[5] = tested on: IL-12/23 p40; assay: BAL IL-12/IL-23p40 ELISA; format: in vivo, mice; details: after second dose
Description: as §1, §2

[6] = tested on: IFN-γ; assay: BAL IFN-γ ELISA; format: in vivo, mice; details: for IFN-γ level: after second dose
Description: as §1, §2

[7] = tested on: PKR; assay: Immunoblot of phospho-PKR in whole lung lysates; format: in vivo, mice
Description: as §1
Whole lung lysates were prepared and the total protein content of each was measured using the DC protein assay reagents (Bio-Rad Inc.). Equal amounts of sample proteins were fractionated on 4-15% SDS-PAGE gels under reducing conditions and transferred to polyvinylidene difluoride membranes. The membranes were then incubated in blocking buffer (5% w/v nonfat dry milk in TBS/0.05% Tween) for 1 hour at room temperature. The membranes were then incubated with primary antibodies overnight at 4° C., washed three times in TBS/0.05% Tween and incubated for 2 h at room temperature with appropriate secondary antibodies. Immunoreactive signal was detected using a chemiluminescent procedure (ECL Western blotting detection system; Amersham Life Science) according to the manufacturer's instructions.

[8] = tested on: IL-18, IL-12/23 p40 and Type I and Type II IFNs; assay: Production of IL-18, IL-12/23 p40 and Type I and Type II IFNs in BAL (stated jointly); format: in vivo, mice; details: versus vehicle controls

Compound: CCNCc1nc2c(N)nc3ccccc3c2n1CC(C)(C)O [GDQ, gardiquimod]
- BAL inflammation: interaction with cigarette smoke (CS-exposed vs non-CS animals) [1]: not significantl
- BAL inflammation ([1]; control animals, 5 μg doses): no effect
- tissue / alveolar remodeling [2]: no effect; also recorded: did not have similar effects

Compound: CC(C)Cn1cnc2c(N)nc3ccccc3c21 [IMQ, imiquimod]
- tissue / alveolar remodeling [2]: did not have similar effects

Compound: lipopoly-saccharide [LPS]
- BAL inflammation: interaction with cigarette smoke (CS-exposed vs non-CS animals) [1]: not a significant difference
- number of cells recovered per ml of BAL fluid [1]: dose dependent
- tissue / alveolar remodeling [2]: no tissue remodeling was observed; also recorded: did not have similar effects

Compound: poly(I:C)
- BAL inflammation: interaction with cigarette smoke (CS-exposed vs non-CS animals) [1]: significantly exacerbated; also recorded: synergistic
- dose giving significant interaction with CS on inflammation ([1]; CS-exposed mice): ≥ 15 µg
- number of cells recovered per ml of BAL fluid [1]: dose dependent
- TUNEL score ([3]; IL-18Rα+/+, IFN-γ+/+, PKR+/+ animals, CS): about 12%
- TUNEL score ([3]; IL-18Rα+/+, IFN-γ+/+, PKR+/+ animals, room air): about 8%
- TUNEL score ([3]; IL-18Rα−/−, IFN-γ−/− and PKR−/− animals, CS): about 9%
- TUNEL value ([3]; IL-18Rα−/−, IFN-γ−/− and PKR−/− animals, room air): about 6.5%
- TUNEL score ([3]; combined with CS): about 17
- TUNEL score ([3]; given alone (no CS)): about 8
- IL-18 level ([4]; CS animals, second dose): about 100 pg/ml
- IL-18 level ([4]; both CS and non-CS animals, by week 4): 90 to 100 pg/mL
- IL-18 level ([4]; non-CS animals, second dose): about 20 pg/ml
- IL-12/23 level ([5]; CS animals, relative to non-CS): about twice that
- IL-12/23 level ([5]; non-CS animals): about 3000 pg/ml
- IFN-γ level ([6]; CS animals): about 90 pg/ml
- IFN-γ expression ([6]; IL-18Rα−/− animals, CS): about 35 pg/ml
- IFN-γ level ([6]; control animals): about 10 pg/ml
- IFN-γ expression ([6]; wild-type animals, CS): about 110 pg/ml
- IFN-γ expression ([6]; wild-type animals, no CS): about 35 pg/ml
- dose at which enhanced PKR activation was observed ([7]; CS-exposed mice): ≥ 15 µg/mL
- phospho-PKR expression ([7]; wild-type animals, given alone): modestly up-regulated
- phospho-PKR expression / PKR activation ([7]; wild-type animals, with CS exposure): further increase; also recorded: greatly enhanced
- stimulation of IL-18, IL-12/23 p40 and Type I and Type II IFNs [8]: potent stimulator
- morphometrically determined alveolar chord length ([2]; 4 doses in CS-exposed mice): significant increases
- increase in alveolar size ([2]; 4 doses in RA-exposed mice): did not achieve statistical significance
- dose at which CS interaction on alveolar/airway remodeling could be appreciated ([2]; CS-exposed mice): ≥ 15 µg
- mean chord length ([2]; IL-18Rα−/− and IFN-γ−/− animals exposed to CS): about 70 microns
- mean chord length ([2]; PKR (null) animals exposed to CS): about 70 microns
- mean chord length ([2]; PKR+/+ animals exposed to CS): about 85 microns
- mean chord length ([2]; PKR+/+ animals, no CS): about 65 microns
- mean chord length ([2]; PKR−/− animals, no CS): ~62 microns
- mean chord length ([2]; administered and exposed to CS, controls about 55 microns): about 90 microns
- mean chord length ([2]; wild-type, IL-18Rα−/− and IFN-γ−/− animals, no CS): about 60 microns
